The values that follow are results of earlier work, collected in patent US20050113271A1, “Automatic dishwashing detergent with improved glass anti-corrosion properties II” (priority 2002, published 2005).

Like-named read-outs stand apart in the source and are kept apart here.

As to Zinc hydroxycarbonate, under “20° C.”, the “Solubility (in words)” value is recorded as “Virtually insoluble (20° C.)”. For `[Cl-].[Cl-].[Zn+2]` [Zinc chloride], under “25° C.”, the Solubility – broadly, how much of the substance goes into solution per volume – was 4320 g/l (25° C.). Turning to Zinc acetylacetonate, the Solubility (20° C.) was 4 g/l (20° C.).
